Assay results published in PMC3878918, “Cathepsin K inhibitors increase distal femoral bone mineral density in rapidly growing rabbits” (BMC Musculoskeletal Disorders, 2013).
Where two headings read alike, the source gives them in different places.

Legend:
[1] = system: growing rats; settings: cited from earlier work; for trabecular bone volume in the proximal tibial metaphysis vs untreated rats: growing rats, ten days
[2] = system: rabbit osteoclasts; test: In vitro bone resorption assay, rabbit osteoclasts on bovine bone slices, CTx-I release; format: cell-based
Experimental: The bone resorption assay is a functional in vitro assay that measures Type-I collagen degradation after a three-day incubation of rabbit osteoclasts cultured on bovine bone with varying concentrations of test compound, as previously described. Briefly, long bones isolated from a 10-day-old NZW rabbit were finely minced in alpha-minimal essential medium (α-MEM) (Gibco BRL; Gaithersburg, MD, USA) containing penicillin/streptomycin, pH 7.1 to obtain a cell suspension and 1 × 10^6 cells were seeded onto each 6 mm diameter × 0.22 mm thick bovine bone slice in the same medium containing 2% fetal bovine serum (FBS). After 4 h, the medium was replaced with α-MEM, 2% FBS, 1,25(OH)2D3 10 nM, and test compounds. The cultures were incubated for three days at 37°C in 5% CO2. C-telopeptide of Type-I collagen (CTx-I) released into the medium was measured by the CROSSLAPS Elisa assay (Osteometer Biotech, Herlev, Denmark).

[3] = design: method as in PMID 16302795, PMID 18226527; settings: rabbit, cited from earlier work; for Cmin / AUC / Cmax: oral; for Cmin: trough at 24 h
[4] = system: rabbit CatK; settings: 2 μM Z-Leu-Arg-AMC as substrate; cited from earlier work
[5] = system: rapidly growing rabbits; test: Rabbit Schenk assay: distal femoral BMD by ex vivo DXA and histology after 10 days' treatment; format: in vivo; settings: for increase in DFBMD vs vehicle / Distal femur BMD / DFBMD of representative DXA image / DFBMD / % BMD gain: 10 days; for Distal femur BMD / DFBMD: mean ± SEM; for DFBMD of representative DXA image: single representative femur; for DFBMD: dose-ranging study; for % BMD gain: vs vehicle
Experimental: To characterize the dose of ALN required to show increases in DFBMD, dose-ranging studies were conducted using ALN, administered at doses of 0, 50, 100, 200, and 500 μg/kg (SC, once daily). Seven-week-old rabbits were weight-randomized into groups (n = 8-11 per group). ALN was prepared in deionized water and pH adjusted to 7.2. The injection volume was 0.3 mL per rabbit. Rabbits were treated daily for 10 consecutive days. Rabbits were reweighed on Day 6 and dosing volume was adjusted accordingly. At necropsy, the right femur was excised and stored in 70% ethanol.
Rabbits were treated once daily by oral gavage for 10 consecutive days with vehicle (1% carboxymethylcellulose or 0.5%/0.2% carboxymethylcellulose/SDS), CatK inhibitors, or ALN (100 μg/kg, SC). Several studies were conducted, with each study including vehicle (n = 11–14), multiple dose levels of a CatK inhibitor (n = 13–14 per group), and ALN (n = 8–9). On Day 1, two rabbits from each group receiving CatK inhibitors were bled via the central ear artery (0.5 mL each) at 0, 0.25, 1, 3, 6, 8, and 24 h after dosing. Plasma concentrations of CatK inhibitors were determined in all samples. On Day 11, rabbits were euthanized. Femurs were removed and stored in 70% ethanol for BMD analysis.
Whole right femurs with muscles removed, were immersed in two inches of water in an acrylic box, and positioned with both distal condyles resting on the bottom of the box. The distal 5 cm of the femur was scanned using small animal software in high resolution mode on a Hologic QDR 4500 fan-beam bone densitometer (DXA; Hologic, Inc., Waltham, MA, USA). The distal 3 cm of the femur was analyzed. A region of interest (ROI) beginning one line distal to the distal edge of the femur and centered 70 lines wide and extending 60 lines proximally in the long axis of the bone was applied. Bone mineral content (BMC) and bone area (BAr) were output by DXA software. BMD was calculated as BMC/BAr.
Following ex vivo DXA scanning, the distal one-third of the femur was cut mid-sagitally and then dehydrated, without prior decalcification, in increasing concentrations of ethanol. The right portion was embedded in 80% methylmethacrylate/20% dibutyl phthalate. Parasagittal sections (6 μm) were cut on a Reichert-Jung Polycut sledge microtome (Nussloch, Germany) and mounted on glass slides. A Masson’s trichrome stain was performed to view calcified tissue.

[6] = system: rabbit osteoclasts; design: method as in PMID 16302795, PMID 18226527; settings: three-day incubation, CTx-I release; read-out: IC50 Rabbit bone resorption assay; cited from earlier work
[7] = system: mouse CatK; design: method as in PMID 19453281; settings: cited from earlier work
[8] = system: rat CatK; design: method as in PMID 19453281; settings: cited from earlier work
[9] = system: human CatK; design: method as in PMID 19453281; settings: cited from earlier work
[10] = system: weanling rats; settings: six weeks of once-weekly treatment; cited from earlier work
[11] = printed in the 3 mg/kg dose row
[12] = printed in the 10 mg/kg dose row

Row | SMILES | Cmin ([3]; 10 mg/kg) [nM] | AUC ([3]; 10 mg/kg) [μm*hr] | Cmax ([3]; 10 mg/kg) [nM] | IC50 [4] [nM] | increase in DFBMD vs vehicle ([5]; 10 mg/kg oral once daily) [%] | Distal femur BMD ([5]; 10 mg/kg oral once daily) [mg/cm^2] | IC50 [6] [nM] | fold more potent in the bone resorption assay than L-833905 [2] | Cl ([3]; 1 mg/kg dose) [mL/min/kg] | Cmin ([3]; 1 mg/kg, LOD ~ 1 nM) | AUC ([3]; 1 mg/kg) [μm*hr] | Cmax ([3]; 1 mg/kg) [nM] | Cmin ([3]; 3 mg/kg) [nM] | AUC ([3]; 3 mg/kg) [μm*hr] | Cmax ([3]; 3 mg/kg) [nM] | increase in DFBMD vs vehicle ([5]; 3 mg/kg oral once daily) [%] | other results
1 | O=P(O)(O)C(Cl)(Cl)P(=O)(O)O [clodronate] | – | – | – | – | – | – | – | – | – | – | – | – | – | – | – | – | trabecular bone volume in the proximal tibial metaphysis vs untreated rats [1]: higher trabecular bone volume
2 | CC(C)C[C@@H](C(=O)NCC#N)c1cccc(-c2ccc(N3CCNCC3)cc2)c1 [Compound L-833905, (R)-N-(cyanomethyl)-4-methyl-2-(4′-(piperazin-1-yl)-[1,1′-biphenyl]-3-yl)pentanamide] | 29 | 1.9 | 163 | 33 ± 2 | 3 | 282.5 ± 5.5 | 149 ± 20 | – | – | – | – | – | – | – | – | – | fold less potent inhibitor of CatK than L-006235, L-873724 and ODN ([2]; from the EIA and functional cell-based assay): 6–30 fold; Cmin ([3]; 30 mg/kg): 60 nM; AUC ([3]; 30 mg/kg): 6.1 μm*hr; Cmax ([3]; 30 mg/kg): 651 nM; increase in DFBMD vs vehicle ([5]; 30 mg/kg oral once daily): 10%; Distal femur BMD ([5]; 30 mg/kg oral once daily): 301.8 ± 4.9 mg/cm^2
3 | CN1CCN(c2nc(-c3ccc(C(=O)NC4(C(=O)NCC#N)CCCCC4)cc3)cs2)CC1 [Compound L-006235] | 8 | 5.0 | 2440 | 0.5 | 15 | 303.5 ± 5.4 | 5 ± 1 | approximately 30 fold | 113 | 9 nM | 0.3 | 74 | 15 | 1.0 | 337 | 11 | Cl [3, 11]: 113 mL/min/kg; Cl [3, 12]: 113 mL/min/kg; increase in DFBMD vs vehicle ([5]; 1 mg/kg oral once daily): 7%; Distal femur BMD ([5]; 1 mg/kg oral once daily): 281.7 ± 4.9 mg/cm^2; Distal femur BMD ([5]; 3 mg/kg oral once daily): 293.5 ± 2.8 mg/cm^2
4 | CC(C)(F)C[C@H](N[C@@H](c1ccc(-c2ccc(S(C)(=O)=O)cc2)cc1)C(F)(F)F)C(=O)NC1(C#N)CC1 [ODN, odanacatib] | – | – | – | 1 | – | – | 23 ± 6 | approximately 30 fold | 6 | 37 nM | 2.2 | 130 | 88 | 4.1 | 270 | 19 | IC50 [7]: 108 nM; fold less potent versus mouse CatK than versus human and rabbit CatK [7]: more than 500 fold; IC50 [8]: 112 nM; fold less potent versus rat CatK than versus human and rabbit CatK [8]: more than 500 fold; AUC ([3]; 0.3 mg/kg): 0.7 μm*hr; Cl ([3]; printed in the 0.3 mg/kg dose row): 6 mL/min/kg; IC50 [9]: 0.2 nM; increase in DFBMD vs vehicle ([5]; 0.3 mg/kg oral once daily): 7%; increase in DFBMD vs vehicle ([5]; 1 mg/kg oral once daily): 11%; DFBMD of representative DXA image ([5]; ODN 3 mg/kg): 388 mg/cm^2
5 | CC(O)(P(=O)(O)O)P(=O)(O)O [etidronate] | – | – | – | – | – | – | – | – | – | – | – | – | – | – | – | – | trabecular bone volume in the proximal tibial metaphysis vs untreated rats [1]: higher trabecular bone volume
6 | NCCCC(O)(P(=O)(O)O)P(=O)(O)O [ALN, alendronate, reference compound] | – | – | – | – | – | – | – | – | – | – | – | – | – | – | – | – | histology of distal femoral metaphysis compared to vehicle ([5]; 10 days' treatment, Masson's trichrome): increased retention of both calcified cartilage and bone tissue; DFBMD ([5]; ALN 50 μg/kg SC once daily): 277.8 ± 8.4 mg/cm^2; % BMD gain ([5]; ALN 50 μg/kg/day SC): 15%; DFBMD ([5]; ALN 100 μg/kg SC once daily): 313.7 ± 3.9 mg/cm^2; Distal femur BMD ([5]; ALN 100 μg/kg SC positive control in the L-006235 study): 300.5 ± 4.6 mg/cm^2; Distal femur BMD ([5]; ALN 100 μg/kg SC positive control in the L-833905 study): 314.0 ± 9.1 mg/cm^2; Distal femur BMD ([5]; ALN 100 μg/kg SC positive control in the L-873724 study): 352.8 ± 9.4 mg/cm^2; % BMD gain ([5]; ALN 100 μg/kg/day SC): 16%; DFBMD of representative DXA image ([5]; ALN 100 μg/kg/day): 361 mg/cm^2; DFBMD ([5]; ALN 200 μg/kg SC once daily): 281.7 ± 6.4 mg/cm^2; % BMD gain ([5]; ALN 200 μg/kg/day SC): 16%; DFBMD ([5]; ALN 500 μg/kg SC once daily): 291.2 ± 9.4 mg/cm^2; % BMD gain ([5]; ALN 500 μg/kg/day SC): 21%; distal femoral metaphyseal BMD [10]: increase in distal femoral metaphyseal BMD; trabecular bone volume ([1]; seven days SC 0.010 mg/kg/d): increased trabecular bone volume
7 | CC(C)C[C@H](N[C@@H](c1ccc(-c2ccc(S(C)(=O)=O)cc2)cc1)C(F)(F)F)C(=O)NCC#N [Compound L-873724] | 32 | 7.8 | 1370 | 0.8 | 15 | 327.7 ± 7.5 | 13 ± 1 | approximately 30 fold | 26 | <LOD* | 0.5 | 78 | 28 | 3.1 | 490 | 9 | Cl [3, 11]: 26 mL/min/kg; Cl [3, 12]: 26 mL/min/kg; Distal femur BMD ([5]; 1 mg/kg oral once daily): 301.2 ± 3.7 mg/cm^2; Distal femur BMD ([5]; 3 mg/kg oral once daily): 310.5 ± 6.5 mg/cm^2
